Measurements published in patent EP4741386A1 (Jiangsu Yahong Meditech Co., Ltd., priority 2023, dated 2025).

Tests used:
[1] = target: T1, Recombinant human His6-USP1/His6-UAF1 complex protein (Homo sapiens, UniProt O94782); experiment: In vitro inhibitory activity against USP1 (Ubiquitin Rhodamine 110 fluorescence detection, 384-well plate); format: biochemical; settings: Ub-Rho substrate, 1 hour pre-incubation, read after 30 minutes
T1 construct: His6; purchased R&D E-568-050
Description: Test Example 1: In vitro inhibitory activity against USP1 […]
Experimental object: to screen compounds with inhibitory activity against USP1 […] by a fluorescence detection method, using a 384-well plate.
Experimental materials: Recombinant human His6-USP1/His6-UAF1 complex protein (R&D, Cat. No.: E-568-050), Ubiquitin Rhodamine 110 protein (Ub-Rho) (R&D, Cat. No.: U-555-050), 384-well plate (Perkin Elmer, Cat. No.: 6007279); all compounds were dissolved in 100% DMSO to obtain 50 mM stock solutions.
• 1) Preparation of 1 × assay buffer: 1 × assay buffer (modified Tris buffer) was prepared; • 2) Dilution of compounds: the compounds were transferred to an assay plate via Echo.

[2] = system: MDA-MB-436; experiment: CTG experiment for cell viability (CellTiter-Glo, 96-well plate, 7 days); format: cell-based; settings: MDA-MB-436 cells, 7 days culture with compound
Description: Test Example 2: CTG experiment for cell viability
• 1. Object: to screen USP1 inhibitors by a CTG assay, using a 96-well plate. • 2. Materials: • The cells used were MDA-MB-436 (manufacturer: Nanjing Cobioer Biotechnology Co., Ltd.) and cultured in DMEM medium, • CTG (CellTiter-Glo® Luminescent Cell Viability Assay kit) (Promega, Cat. No.: G7572), • 96-well plate (Corning, Cat. No.: 3610). • 3. Compounds: all compounds were dissolved in 100% DMSO to obtain 50 mM stock solutions. • 4. Experimental method: • ① Plating: The cells to be tested were spread into a 96-well plate at a certain density, with 200 µL per well, and 200 µL of cell medium was added to the blank wells. […] The cell plate with the compounds was placed in an incubator at 37°C, and further cultured for 7 days prior to detection. • ④ Assay: The substrate and the buffer of CTG kit were mixed evenly. The cell plate with the compounds in Step ③ was taken out from the incubator, and left at room temperature to equilibrate for 30 minutes. The medium containing the compounds was removed from the cell plate, 100 µL of PBS and 50 µL of CTG reagent were added to each well, shaken and mixed for 3 minutes, and then incubated for 10 minutes at room temperature. The plate was read by a BIotek microplate-reader, with a parameter set to 567 CPM. • 5. Curve fitting
It was the same as that for the enzyme.

[3] = Homo sapiens, MDA-MB-436, 168 h

T1 sequence (O94782 whole entry): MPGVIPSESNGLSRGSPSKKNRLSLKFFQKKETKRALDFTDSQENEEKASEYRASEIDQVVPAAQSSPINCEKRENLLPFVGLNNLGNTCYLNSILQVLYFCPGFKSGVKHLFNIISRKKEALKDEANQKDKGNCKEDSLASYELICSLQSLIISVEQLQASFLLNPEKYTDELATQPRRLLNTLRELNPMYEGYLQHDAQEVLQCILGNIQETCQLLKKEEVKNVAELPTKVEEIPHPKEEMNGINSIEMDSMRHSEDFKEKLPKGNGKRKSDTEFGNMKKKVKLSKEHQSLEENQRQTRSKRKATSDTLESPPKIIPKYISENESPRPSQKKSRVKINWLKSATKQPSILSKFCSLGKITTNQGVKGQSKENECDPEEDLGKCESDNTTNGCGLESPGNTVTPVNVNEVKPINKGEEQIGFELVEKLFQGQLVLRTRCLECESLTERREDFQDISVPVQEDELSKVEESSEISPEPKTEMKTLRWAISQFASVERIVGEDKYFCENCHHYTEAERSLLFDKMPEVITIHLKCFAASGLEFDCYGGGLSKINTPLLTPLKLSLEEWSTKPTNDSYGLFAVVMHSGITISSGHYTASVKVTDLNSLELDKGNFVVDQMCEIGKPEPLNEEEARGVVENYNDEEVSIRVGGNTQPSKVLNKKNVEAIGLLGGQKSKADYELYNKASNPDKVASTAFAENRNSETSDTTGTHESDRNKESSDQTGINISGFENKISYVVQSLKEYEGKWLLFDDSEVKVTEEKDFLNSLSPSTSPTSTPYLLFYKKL
T1 sequence (Q8TAF3 whole entry partner): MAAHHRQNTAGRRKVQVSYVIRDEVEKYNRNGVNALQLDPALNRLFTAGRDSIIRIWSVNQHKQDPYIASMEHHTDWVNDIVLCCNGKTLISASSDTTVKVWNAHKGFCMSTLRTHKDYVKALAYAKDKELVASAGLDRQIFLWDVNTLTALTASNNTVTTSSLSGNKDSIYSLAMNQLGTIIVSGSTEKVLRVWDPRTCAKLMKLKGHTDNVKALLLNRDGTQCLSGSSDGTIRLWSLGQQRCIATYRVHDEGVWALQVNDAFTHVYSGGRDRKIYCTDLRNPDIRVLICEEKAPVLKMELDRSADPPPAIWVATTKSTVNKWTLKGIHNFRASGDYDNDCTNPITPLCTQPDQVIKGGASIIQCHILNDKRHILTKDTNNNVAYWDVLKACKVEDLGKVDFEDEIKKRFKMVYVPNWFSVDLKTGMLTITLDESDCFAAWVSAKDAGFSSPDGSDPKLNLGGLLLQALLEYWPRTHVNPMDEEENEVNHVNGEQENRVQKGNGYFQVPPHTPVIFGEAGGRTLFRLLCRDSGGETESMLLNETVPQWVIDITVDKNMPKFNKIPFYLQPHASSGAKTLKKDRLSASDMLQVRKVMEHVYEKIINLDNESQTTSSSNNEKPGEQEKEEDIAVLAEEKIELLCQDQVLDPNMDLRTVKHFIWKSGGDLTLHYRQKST

IC50 [1] | IC50 [2, 3] | IC50 [2] | Structure (SMILES)
3.5 nM |  |  | [2H]C([2H])([2H])Oc1ncnc(C2CC2)c1-c1ncc(OC)c(N(C)CC23CCC(c4nc(C(F)(F)F)cn4C)(CC2)CC3)n1 [Example S9, 4'-Cyclopropyl-5-methoxy-6'-(methoxy-D3)-N-methyl-N-((4-(1-methyl-4-(trifluoromethyl)-1H-imidazol-2-yl)bicyclo[2.2.2]oct-1-yl)methyl)-[2,5'-bipyrimidin]-4-amine]
19 nM |  |  | COc1cnc(-c2c(OC)ncnc2C2CC2)nc1N(C)CC12CCC(c3nc(C(F)(F)F)cn3C)(CC1)OC2 [Example S10, 4'-Cyclopropyl-5,6'-dimethoxy-N-methyl-N-((1-(1-methyl-4-(trifluoromethyl)-1H-imidazol-2-yl)-2-oxabicyclo[2.2.2]oct-4-yl)methyl)-[2,5'-bipyrimidin]-4-amine]
6.1 nM |  |  | COc1cnc(-c2c(Cl)cnn2C(C)C)nc1NCC12CCC(c3nc(C(F)(F)F)cn3C3CCC3)(CC1)OC2 [Example S11, 2-(4-Chloro-1-isopropyl-1H-pyrazol-5-yl)-N-((1-(1-cyclobutyl-4-(trifluoromethyl)-1H-imidazol-2-yl)-2-oxabicyclo[2.2.2]oct-4-yl)methyl)-5-methoxypyrimidin-4-amine]
300 nM |  |  | COc1cnc(-c2c(C)ncnc2OC2CC2)nc1NCC12CCC(c3nc(C(F)(F)F)cn3C)(CC1)CC2 [Example S19]
 |  | 24.4 nM | COc1cnc(-c2c(OC)ncnc2C2CC2)nc1NCC1CCC(c2nc(C(F)(F)F)cn2C(C)C)CC1 [Example S25, 4'-Cyclopropyl-N-((1R,4R)-4-(1-isopropyl-4-(trifluoromethyl)-1H-imidazol-2-yl)cyclohexyl)methyl)-5,6'-dimethoxy-[2,5'-bipyrimidin]-4-amine]
 |  | 0.3 nM | COc1cnc(-c2c(OC)ncnc2C2CC2)nc1N(C)C[C@H]1CC[C@H](c2nc(C(F)(F)F)cn2C2CC2)CC1 [Example S28, 4'-Cyclopropyl-N-(((1R,4R)-4-(1-cyclopropyl-4-(trifluoromethyl)-1H-imidazol-2-yl)cyclohexyl)methyl)-5,6'-dimethoxy-N-methyl-[2,5'-bipyrimidin]-4-amine]
220 nM |  |  | COc1cnc(-c2c(OC)ncnc2C2(F)CC2)nc1NCC1CCC(c2nc(C(F)(F)F)cn2C2CC2)CC1 [Example S38, N-(((1R,4R)-4-(1-cyclopropyl-4-(trifluoromethyl)-1H-imidazol-2-yl)cyclohexyl)methyl)-4'-(1-fluorocyclopropyl)-5,6'-dimethoxy-[2,5'-bipyrimidin]-4-amine]

Further lines, the compound ahead of its results:

Structure (SMILES) | IC50 [1] | IC50 [2, 3] | IC50 [2]
COc1cnc(-c2ccccc2C(C)C)nc1N(C)CC1CCN(c2ccccn2)CC1 [Example 2, 2-(2-Isopropylphenyl)-5-methoxy-N-methyl-N-((1-(pyridin-2-yl)piperidin-4-yl)methyl)pyrimidin-4-amine] | 14 nM | 0.1 nM | 
COc1cnc(-c2ccccc2C(C)C)nc1N(C)Cc1ccc(-c2nc(C(F)(F)F)cn2C)cc1 [Example 3, 2-(2-Isopropylphenyl)-5-methoxy-N-methyl-N-(4-(1-methyl-4-(trifluoromethyl)-1H-imidazol-2-yl)benzyl)pyrimidin-4-amine] | 2.8 nM | 6.4 nM | 
COc1cnc(-c2ccccc2C(C)C)nc1NCc1ccc(-c2nc(C(F)(F)F)cn2C)cc1 [Example 4, 2-(2-Isopropylphenyl)-5-methoxy-N-(4-(1-methyl-4-(trifluoromethyl)-1H-imidazol-2-yl)benzyl)pyrimidin-4-amine] | 1.2 nM | 0.3 nM | 
COc1cnc(-c2ccccc2C(C)C)nc1NCC1CCN(c2ccccn2)CC1 [Example 5, 2-(2-Isopropylphenyl)-5-methoxy-N-((1-(pyridin-2-yl)piperidin-4-yl)methyl)pyrimidin-4-amine] | 7.6 nM | 113 nM | 
COc1cnc(-c2ccccc2C(C)C)nc1NC[C@H]1CC[C@H](c2nc(C(F)(F)F)cn2C)CC1 [Example 6, 2-(2-Isopropylphenyl)-5-methoxy-N-(((1R,4R)-4-(1-methyl-4-(trifluoromethyl)-1H-imidazol-2-yl)cyclohexyl)methyl)pyrimidin-4-amine] | 1.2 nM | 2 nM | 
COc1cnc(-c2ccccc2C(C)C)nc1NCc1ccc(-n2nc(C(F)(F)F)cc2C)cc1 [Example 7, 2-(2-Isopropylphenyl)-5-methoxy-N-(4-(5-methyl-3-(trifluoromethyl)-1H-pyrazol-1-yl)benzyl)pyrimidin-4-amine] | 4.5 nM | 102 nM | 
COc1cnc(-c2c(OC)ncnc2C2CC2)nc1N(C)Cc1ccc(-c2nc(C(F)(F)F)cn2C)cc1 [Example 8, 4'-Cyclopropyl-5,6'-dimethoxy-N-methyl-N-(4-(1-methyl-4-(trifluoromethyl)-1H-imidazol-2-yl)benzyl)-[2,5'-bipyrimidin]-4-amine] | 1.4 nM | 2.3 nM | 
COc1cnc(-c2ccccc2C(C)C)nc1NCc1ccc(-c2nccn3ccnc23)cc1 [Example 11, N-(4-(Imidazo[1,2-a]pyrazin-8-yl)benzyl)-2-(2-isopropylphenyl)-5-methoxypyrimidin-4-amine] | 22 nM | 751 nM | 
Cc1cc(C(F)(F)F)nn1-c1ccc(CN2C(=O)COc3cnc(-c4ccccc4C(C)C)nc32)cc1 [Example 15, 2-(2-Isopropylphenyl)-8-(4-(5-methyl-3-(trifluoromethyl)-1H-pyrazol-1-yl)benzyl)-6H-pyrimido[5,4-b][1,4]oxazin-7(8H)-one] | 6.8 nM | 301 nM | 
CC(C)c1ccccc1-c1ncc(C(F)(F)F)c(NCc2ccc(-c3nc(C(F)(F)F)cn3C)cc2)n1 [Example 17, 2-(2-Isopropylphenyl)-N-(4-(1-methyl-4-(trifluoromethyl)-1H-imidazol-2-yl)benzyl)-5-(trifluoromethyl)pyrimidin-4-amine] | 3.9 nM | 103 nM | 
COc1ncnc(C2CC2)c1-c1ncc2c(n1)N(Cc1ccc(-c3nc(C(F)(F)F)cn3C)cc1)C(=O)CO2 [Example 18, 2-(4-Cyclopropyl-6-methoxypyrimidin-5-yl)-8-(4-(1-methyl-4-(trifluoromethyl)-1H-imidazol-2-yl)benzyl)-6H-pyrimido[5,4-b][1,4]oxazin-7(8H)-one] |  | 313 nM | 
COc1ncnc(C2CC2)c1-c1ncc2c(n1)N(Cc1ccc(-c3nc(C(F)(F)F)cn3C)cc1)CCO2 [Example 21, 2-(4-Cyclopropyl-6-methoxypyrimidin-5-yl)-8-(4-(1-methyl-4-(trifluoromethyl)-1H-imidazol-2-yl)benzyl)-7,8-dihydro-6H-pyrimido[5,4-b][1,4]oxazine] |  | 1.8 nM | 
COc1ncnc(C2CC2)c1-c1nc(NCc2ccc(-c3ccccn3)cc2)c2occc2n1 [Example 34, 2-(4-Cyclopropyl-6-methoxypyrimidin-5-yl)-N-(4-(pyridin-2-yl)benzyl)furo[3,2-d]pyrimidin-4-amine] |  | 119 nM | 
Cn1cc(C(F)(F)F)nc1-c1ccc(CNc2nc(-c3cccnc3C3CC3)ncc2OC(F)F)cc1 [Example 156, 2-(2-Cyclopropylpyridin-3-yl)-5-(difluoromethoxy)-N-(4-(1-methyl-4-(trifluoromethyl)-1H-imidazol-2-yl)benzyl)pyrimidin-4-amine] |  | 59.5 nM | 
COc1cnc(-c2c(C)cnn2C2CC2)nc1N(O)Cc1ccc(-c2nc(C(F)(F)F)cn2C)cc1 [Example 205, N-(2-(1-cyclopropyl-4-methyl-1H-pyrazol-5-yl)-5-methoxypyrimidin-4-yl)-N-(4-(1-methyl-4-(trifluoromethyl)-1H-imidazol-2-yl)benzyl)hydroxylamine] | 43 nM |  | 
COc1cnc(-c2c(OC)ncnc2C2CC2)nc1N(C#N)Cc1ccc(-c2nc(C(F)(F)F)cn2C)cc1 [Example 206, N-(4'-cyclopropyl-5,6'-dimethoxy-[2,5'-bipyrimidin]-4-yl)-N-(4-(1-methyl-4-(trifluoromethyl)-1H-imidazol-2-yl)benzyl)cyanamide] | 3.5 nM |  | 
COc1cnc(-c2c(Cl)cnn2C(C)C)nc1N(C)CC12CCC(c3nc(C(F)(F)F)cn3C)(CC1)OC2 [Example 211, 2-(4-chloro-1-isopropyl-1H-pyrazol-5-yl)-5-methoxy-N-methyl-N-((1-(1-methyl-4-(trifluoromethyl)-1H-imidazol-2-yl)-2-oxabicyclo [2.2.2]octan-4-yl)methyl)pyrimidin-4-amine] | 6.1 nM |  | 
COc1cnc(-c2c(OC)ncnc2C2CC2)nc1N(C)CC12CCC(c3nc(C(F)(F)F)cn3C)(CC1)OC2 [Example 212, 4'-cyclopropyl-5,6'-dimethoxy-N-methyl-N-((1-(1-methyl-4-(trifluoromethyl)-1H-imidazol-2-yl)-2-oxabicyclo[2.2.2]octan-4-yl)methyl)-[2,5'-bipyrimidin]-4-amine] | 19 nM |  | 
